Targets include D(3) dopamine receptor (Homo sapiens, UniProt P35462); Motilin receptor (Homo sapiens, UniProt O43193); Vasopressin V2 receptor (Homo sapiens, UniProt P30518); Melanocortin receptor 3 (Homo sapiens, UniProt P41968).
In test [1] the target is T1, Muscarinic acetylcholine receptor M2 (Homo sapiens, UniProt P08172).
T1 sequence (P08172 whole entry): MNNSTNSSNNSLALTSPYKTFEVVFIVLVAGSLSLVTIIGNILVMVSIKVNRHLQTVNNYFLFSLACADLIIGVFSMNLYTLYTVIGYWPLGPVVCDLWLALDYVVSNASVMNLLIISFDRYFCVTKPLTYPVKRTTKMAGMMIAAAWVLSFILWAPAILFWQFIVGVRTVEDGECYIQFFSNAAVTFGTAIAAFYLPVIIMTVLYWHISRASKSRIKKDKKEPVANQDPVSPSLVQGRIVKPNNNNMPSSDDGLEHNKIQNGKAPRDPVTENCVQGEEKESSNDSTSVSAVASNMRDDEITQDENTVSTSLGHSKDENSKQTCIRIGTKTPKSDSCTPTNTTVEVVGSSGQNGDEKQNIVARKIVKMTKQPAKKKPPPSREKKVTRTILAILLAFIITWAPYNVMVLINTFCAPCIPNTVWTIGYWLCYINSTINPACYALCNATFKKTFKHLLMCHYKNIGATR
The test is classed as functional, cell-based.

The target of test [2] is T2, Amine oxidase [flavin-containing] A (Homo sapiens, UniProt P21397).
T2 sequence (P21397 whole entry): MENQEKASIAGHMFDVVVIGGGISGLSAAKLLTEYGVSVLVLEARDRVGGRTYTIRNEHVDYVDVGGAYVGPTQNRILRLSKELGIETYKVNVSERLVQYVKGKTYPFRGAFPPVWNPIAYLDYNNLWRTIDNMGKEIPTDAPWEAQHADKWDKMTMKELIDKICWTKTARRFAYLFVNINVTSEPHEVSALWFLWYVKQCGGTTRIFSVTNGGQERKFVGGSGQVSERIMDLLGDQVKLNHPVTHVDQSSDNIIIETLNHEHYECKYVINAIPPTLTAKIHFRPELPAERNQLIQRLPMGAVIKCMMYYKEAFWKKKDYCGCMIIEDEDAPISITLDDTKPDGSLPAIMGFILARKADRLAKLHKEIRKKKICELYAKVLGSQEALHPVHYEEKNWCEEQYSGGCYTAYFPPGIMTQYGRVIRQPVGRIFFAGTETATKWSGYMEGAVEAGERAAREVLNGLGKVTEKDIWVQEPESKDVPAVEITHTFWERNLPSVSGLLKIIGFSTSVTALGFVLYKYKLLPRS
The test is classed as functional.

For test [3], the target named is T3, Alpha-2C adrenergic receptor (Homo sapiens, UniProt P18825).
T3 sequence (P18825 whole entry): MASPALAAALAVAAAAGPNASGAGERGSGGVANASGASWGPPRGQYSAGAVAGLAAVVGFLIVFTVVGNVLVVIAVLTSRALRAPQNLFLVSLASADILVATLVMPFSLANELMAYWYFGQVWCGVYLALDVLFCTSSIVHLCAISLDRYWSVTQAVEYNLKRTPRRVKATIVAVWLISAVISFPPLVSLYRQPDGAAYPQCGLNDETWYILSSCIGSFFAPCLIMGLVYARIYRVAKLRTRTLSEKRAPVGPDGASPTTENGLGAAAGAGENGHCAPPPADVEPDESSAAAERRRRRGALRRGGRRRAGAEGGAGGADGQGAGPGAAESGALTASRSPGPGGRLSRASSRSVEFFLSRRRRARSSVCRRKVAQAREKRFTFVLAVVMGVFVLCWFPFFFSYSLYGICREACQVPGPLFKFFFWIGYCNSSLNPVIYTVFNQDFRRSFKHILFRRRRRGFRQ
The test is classed as functional.

Test [4] addresses Sodium-dependent noradrenaline transporter (Homo sapiens, UniProt P23975).
Test [5] addresses T4, 5-hydroxytryptamine receptor 1A (Homo sapiens, UniProt P08908).
T4 sequence (P08908 whole entry): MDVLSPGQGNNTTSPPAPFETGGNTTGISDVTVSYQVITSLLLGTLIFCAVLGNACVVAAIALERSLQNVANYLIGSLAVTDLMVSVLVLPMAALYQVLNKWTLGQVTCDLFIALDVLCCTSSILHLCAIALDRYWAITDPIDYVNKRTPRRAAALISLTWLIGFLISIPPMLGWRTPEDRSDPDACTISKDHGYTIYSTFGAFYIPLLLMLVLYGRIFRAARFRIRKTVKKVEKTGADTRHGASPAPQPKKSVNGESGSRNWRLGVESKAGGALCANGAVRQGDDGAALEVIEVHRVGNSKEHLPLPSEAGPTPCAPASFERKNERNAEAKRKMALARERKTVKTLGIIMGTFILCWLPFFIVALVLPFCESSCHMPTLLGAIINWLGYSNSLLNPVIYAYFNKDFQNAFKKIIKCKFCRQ
The test is classed as functional, cell-based.

Test [6] addresses T5, Neuropeptide Y receptor type 1 (Homo sapiens, UniProt P25929).
T5 sequence (P25929 whole entry): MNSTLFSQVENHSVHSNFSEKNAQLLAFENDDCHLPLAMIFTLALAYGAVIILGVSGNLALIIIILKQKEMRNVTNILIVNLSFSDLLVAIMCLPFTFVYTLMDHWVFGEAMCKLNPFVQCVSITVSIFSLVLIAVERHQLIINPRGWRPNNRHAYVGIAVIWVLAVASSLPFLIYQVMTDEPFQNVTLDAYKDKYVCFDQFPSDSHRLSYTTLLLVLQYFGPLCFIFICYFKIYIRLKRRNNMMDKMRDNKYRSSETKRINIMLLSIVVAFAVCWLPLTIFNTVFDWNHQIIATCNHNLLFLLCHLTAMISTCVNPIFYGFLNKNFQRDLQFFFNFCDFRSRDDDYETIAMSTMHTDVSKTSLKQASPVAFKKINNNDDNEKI
The settings on record: read-out: AC50.

The target of test [7] is Gamma-aminobutyric acid receptor subunit alpha-1 (Rattus norvegicus, UniProt P62813). The test is classed as functional.

We go through eleven compounds from ChEMBL document CHEMBL5291721, “A preclinical secondary pharmacology resource illuminates target-adverse drug reaction associations of marketed drugs” (Nat Commun, 2023).
Further: assay procedure not described here.

Vasopressin V2 receptor, sequence (P30518 whole entry): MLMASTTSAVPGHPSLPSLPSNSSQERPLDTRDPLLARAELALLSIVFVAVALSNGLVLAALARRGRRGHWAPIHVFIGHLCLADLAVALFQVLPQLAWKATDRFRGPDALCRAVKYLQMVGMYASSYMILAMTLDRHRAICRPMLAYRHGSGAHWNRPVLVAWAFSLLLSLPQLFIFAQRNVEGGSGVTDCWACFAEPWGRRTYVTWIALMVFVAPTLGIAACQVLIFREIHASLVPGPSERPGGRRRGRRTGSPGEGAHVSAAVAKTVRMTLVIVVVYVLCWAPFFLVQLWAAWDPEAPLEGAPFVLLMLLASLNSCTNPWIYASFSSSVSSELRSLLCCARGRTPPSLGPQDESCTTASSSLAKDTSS
Gamma-aminobutyric acid receptor subunit alpha-1, sequence (P62813 whole entry): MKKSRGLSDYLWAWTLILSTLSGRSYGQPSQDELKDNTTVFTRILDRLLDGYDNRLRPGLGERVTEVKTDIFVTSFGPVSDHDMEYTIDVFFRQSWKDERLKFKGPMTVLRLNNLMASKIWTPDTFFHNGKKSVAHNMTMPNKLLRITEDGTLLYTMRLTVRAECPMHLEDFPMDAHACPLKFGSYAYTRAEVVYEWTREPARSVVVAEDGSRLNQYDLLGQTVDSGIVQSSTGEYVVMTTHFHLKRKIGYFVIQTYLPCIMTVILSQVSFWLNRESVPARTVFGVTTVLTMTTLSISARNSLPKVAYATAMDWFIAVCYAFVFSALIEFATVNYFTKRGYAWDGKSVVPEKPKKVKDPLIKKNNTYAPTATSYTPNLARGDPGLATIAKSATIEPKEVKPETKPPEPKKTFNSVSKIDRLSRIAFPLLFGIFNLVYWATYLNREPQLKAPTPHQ
Sodium-dependent noradrenaline transporter, sequence (P23975 whole entry): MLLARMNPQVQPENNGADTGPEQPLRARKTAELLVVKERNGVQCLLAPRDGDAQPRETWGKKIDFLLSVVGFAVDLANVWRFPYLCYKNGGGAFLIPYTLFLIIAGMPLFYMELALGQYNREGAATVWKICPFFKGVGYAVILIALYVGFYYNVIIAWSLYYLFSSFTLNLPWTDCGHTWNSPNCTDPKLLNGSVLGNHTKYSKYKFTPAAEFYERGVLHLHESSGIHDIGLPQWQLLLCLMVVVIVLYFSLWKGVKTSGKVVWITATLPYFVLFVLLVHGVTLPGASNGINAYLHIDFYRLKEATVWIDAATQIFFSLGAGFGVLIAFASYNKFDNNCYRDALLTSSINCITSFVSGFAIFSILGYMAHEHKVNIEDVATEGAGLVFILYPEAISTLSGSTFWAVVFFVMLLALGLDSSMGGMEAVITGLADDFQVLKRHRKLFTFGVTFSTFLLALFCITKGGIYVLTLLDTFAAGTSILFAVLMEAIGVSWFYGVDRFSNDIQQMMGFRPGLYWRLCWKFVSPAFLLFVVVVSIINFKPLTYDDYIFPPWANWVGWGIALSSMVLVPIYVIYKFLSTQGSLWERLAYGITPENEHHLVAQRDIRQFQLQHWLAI
D(3) dopamine receptor, sequence (P35462 whole entry): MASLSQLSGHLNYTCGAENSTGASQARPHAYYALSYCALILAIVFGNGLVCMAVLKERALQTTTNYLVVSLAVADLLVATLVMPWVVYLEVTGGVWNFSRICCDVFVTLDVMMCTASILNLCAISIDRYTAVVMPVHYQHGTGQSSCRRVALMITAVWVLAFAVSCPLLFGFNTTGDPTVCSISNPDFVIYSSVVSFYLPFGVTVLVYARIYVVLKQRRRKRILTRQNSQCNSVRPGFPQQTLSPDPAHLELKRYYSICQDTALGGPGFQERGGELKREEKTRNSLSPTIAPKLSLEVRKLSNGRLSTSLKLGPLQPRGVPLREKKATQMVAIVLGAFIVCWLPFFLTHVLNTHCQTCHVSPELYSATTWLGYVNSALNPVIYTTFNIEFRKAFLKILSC
Melanocortin receptor 3, sequence (P41968 whole entry): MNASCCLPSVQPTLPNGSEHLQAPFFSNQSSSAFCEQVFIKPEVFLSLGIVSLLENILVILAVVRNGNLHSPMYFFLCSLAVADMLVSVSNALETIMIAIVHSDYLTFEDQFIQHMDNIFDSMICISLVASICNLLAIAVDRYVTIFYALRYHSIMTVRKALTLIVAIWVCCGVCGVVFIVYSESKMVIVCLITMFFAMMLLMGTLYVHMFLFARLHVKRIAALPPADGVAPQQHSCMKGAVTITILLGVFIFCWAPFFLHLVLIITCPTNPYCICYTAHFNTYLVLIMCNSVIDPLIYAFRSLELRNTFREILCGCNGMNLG
Motilin receptor, sequence (O43193 whole entry): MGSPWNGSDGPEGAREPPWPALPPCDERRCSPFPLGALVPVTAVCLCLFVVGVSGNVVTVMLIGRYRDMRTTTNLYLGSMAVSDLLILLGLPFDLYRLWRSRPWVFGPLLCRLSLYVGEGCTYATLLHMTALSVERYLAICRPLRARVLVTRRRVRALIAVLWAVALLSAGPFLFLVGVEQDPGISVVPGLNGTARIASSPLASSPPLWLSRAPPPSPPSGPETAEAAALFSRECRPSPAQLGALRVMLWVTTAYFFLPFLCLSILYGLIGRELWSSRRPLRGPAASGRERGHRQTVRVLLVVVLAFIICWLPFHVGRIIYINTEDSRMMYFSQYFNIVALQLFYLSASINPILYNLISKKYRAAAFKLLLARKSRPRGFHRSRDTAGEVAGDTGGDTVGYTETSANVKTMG

As for `CCOC(=O)O[C@]1(C(=O)OCCl)CC[C@H]2[C@@H]3CCC4=CC(=O)C=C[C@]4(C)[C@H]3[C@@H](O)C[C@@]21C` [LOTEPREDNOL ETABONATE], the concentration at half-maximal activity (AC50) (on D(3) dopamine receptor; in test [1]; in [2]; at Motilin receptor; on Vasopressin V2 receptor; in [3]) was over 30 µM each time. For the same compound, the AC50 (in test [4]; in test [5]; in test [6]; on Melanocortin receptor 3; in test [7]) was over 30 µM in each case.

In the case of `COc1cc2c(cc1OC)C(CCc1ccc(Cl)cc1)N(C)CC2` (stereo unspecified) [METHOPHOLINE], the half-maximal activity concentration (AC50) on D(3) dopamine receptor was over 30 µM; in test [1], over 10 µM; in test [2], 11 µM; at Motilin receptor, over 30 µM; at Vasopressin V2 receptor it was over 30 µM; in [3], over 10 µM. Also, the AC50 in [4] is over 30 µM; in test [5] it was over 10 µM; in test [6], over 30 µM; at Melanocortin receptor 3, over 30 µM; in test [7] it was over 10 µM.

With `Cc1ncc2n1-c1ccc(Cl)cc1C(c1ccccc1F)=NC2` [MIDAZOLAM], the half-maximal activity concentration (AC50) at D(3) dopamine receptor is 10 µM; in [1] it was over 10 µM; in test [2], over 10 µM; on Motilin receptor it was over 10 µM; on Vasopressin V2 receptor it was over 30 µM; in test [3], over 10 µM. The concentration at half-maximal activity (AC50) in test [4] was over 30 µM; in [5] it was over 30 µM; in test [6], over 30 µM; on Melanocortin receptor 3, over 30 µM; in [7] it was 0.0025 µM.

`C/C(=C\C(=O)OCCCCCCCCC(=O)O)C[C@@H]1OC[C@H](C[C@@H]2O[C@H]2[C@@H](C)[C@H](C)O)[C@@H](O)[C@H]1O` [MUPIROCIN]: the AC50 at D(3) dopamine receptor is over 30 µM; in test [1], over 10 µM; in [2] it was over 10 µM; at Motilin receptor, over 10 µM; at Vasopressin V2 receptor it was over 10 µM; in [3] it was over 10 µM. Besides, the concentration at half-maximal activity (AC50) in test [4] is over 30 µM; in test [5], over 10 µM; in test [6], over 10 µM; at Melanocortin receptor 3, over 10 µM; in test [7] it was over 10 µM.

As to `O=C1CN=C(c2ccccc2)c2cc([N+](=O)[O-])ccc2N1` [NITRAZEPAM], the AC50 at D(3) dopamine receptor was over 30 µM; in test [1], over 10 µM; in test [2] it was over 10 µM; on Motilin receptor it was over 10 µM; at Vasopressin V2 receptor it was over 10 µM; in [3], over 10 µM. Besides, the AC50 was over 10 µM in test [4]; over 10 µM in test [5]; over 10 µM in test [6]; over 10 µM on Melanocortin receptor 3; 0.022 µM in test [7].

Take `C#CCOc1ccc(N)cc1C(=O)NCCCC` [PARSALMIDE]: the concentration at half-maximal activity (AC50) (on D(3) dopamine receptor; in test [1]; in test [2]; at Motilin receptor; at Vasopressin V2 receptor; in test [3]) was over 30 µM throughout. Moreover, the concentration at half-maximal activity (AC50) (in test [4]; in test [5]; in [6]; on Melanocortin receptor 3; in test [7]) was over 30 µM in each case.

Regarding `COc1ccc2nc3cc(Cl)ccc3c(Nc3cc(CN4CCCC4)c(O)c(CN4CCCC4)c3)c2n1` [PYRONARIDINE], the AC50 on D(3) dopamine receptor is 21 µM; in test [1] it was over 30 µM; in test [2], over 30 µM; at Motilin receptor, over 30 µM; at Vasopressin V2 receptor it was 18 µM; in test [3] it was 21 µM. For the same compound, the AC50 in test [4] is 8.1 µM; in test [5], over 30 µM; in test [6] it was over 30 µM; at Melanocortin receptor 3, over 30 µM; in [7], over 30 µM.

`CC1=C(C)C(=O)C(C(CCCCCC(=O)O)c2ccccc2)=C(C)C1=O` (stereo unspecified) [SERATRODAST]: the AC50 (at D(3) dopamine receptor; in test [1]; in [2]; at Motilin receptor; at Vasopressin V2 receptor; in [3]) was over 30 µM throughout. Besides, the AC50 (in test [4]; in [5]; in test [6]; at Melanocortin receptor 3; in [7]) was over 30 µM in each case.

Take `CCN(CC)CCNC(=O)c1cc(S(C)(=O)=O)ccc1OC` [TIAPRIDE]: the AC50 at D(3) dopamine receptor was 0.36 µM; in test [1], over 30 µM; in test [2], over 30 µM; at Motilin receptor, over 30 µM; at Vasopressin V2 receptor it was over 30 µM; in test [3], over 30 µM. Also, the AC50 (in test [4]; in test [5]; in [6]; on Melanocortin receptor 3; in test [7]) was over 30 µM each time.

In the case of `NC1CCN(c2nc3c(cc2F)c(=O)c(C(=O)O)cn3-c2ccc(F)cc2F)C1` (stereo unspecified) [TOSUFLOXACIN], the concentration at half-maximal activity (AC50) (on D(3) dopamine receptor; in test [1]; in test [2]; on Motilin receptor; at Vasopressin V2 receptor; in test [3]) was over 30 µM in each case. Moreover, the half-maximal activity concentration (AC50) (in test [4]; in test [5]; in test [6]; on Melanocortin receptor 3; in [7]) was over 30 µM each time.

In the case of `CCC(COC(=O)c1cc(OC)c(OC)c(OC)c1)(c1ccccc1)N(C)C` (stereo unspecified) [TRIMEBUTINE], the AC50 (on D(3) dopamine receptor; in test [1]; in test [2]; at Motilin receptor; on Vasopressin V2 receptor; in test [3]) was over 30 µM each time. Moreover, the AC50 (in test [4]; in test [5]; in test [6]; on Melanocortin receptor 3; in [7]) was over 30 µM in each case.
